Laboratory results from patent US7320975B2, “2-(2-pyridyl)-5-phenyl-6-aminopyrimidine, method and intermediate products for the production and use thereof for combating noxious fungi” (BASF Aktiengesellschaft, priority 2002, dated 2008).

Assay: Lipophilicity parameter log Pow by RP HPLC run time method (OECD test guidelines)
Assay type: physicochemical
Experimental: The determination of the lipophilicity parameter log Pow (Table I) was carried out in accordance with OECD test guidelines using the RP HPLC run time method.
To this end, a log k′/log Pow correlation curve based on ten reference substances was plotted and was validated with the help of the lipophilicity parameters of eight comparison substances established through the extraction method.
A commercially available reversed-phase C18 stationary phase was used as stationary phase. Chromatographic separation was carried out with methanol and a buffer solution as mobile phase at pH 7.4 under isocratic conditions.
The retention times of the standards tR were converted in accordance with equation Φ into the capacity factors k′, in which t0, as reaction time of the solvent unretarded on the reversed-phase C18 stationary phase, represents the dead time of the chromatographic system:
The linear correlation of the log k′ values with the log Pow values of the standards published in the appendix to the guidelines 92/69/EEC yields the correlation curve through linear regression.
The lipophilicity parameters log Pow of the analytes were after calculation of the logarithmic capacity factor log k′ interpolated from the correlation curve of the standards.

[1] = RP HPLC run time method (OECD test guidelines)
[2] = RP HPLC run time method, OECD test guidelines

SMILES	log Pow [1]	log Pow [2]
CCN(CC)c1nc(-c2ccccn2)nc(Cl)c1-c1c(F)cc(F)cc1F [1-9]	log Pow 4.08	
C[C@H](Nc1nc(-c2ccccn2)nc(Cl)c1-c1c(F)cc(F)cc1F)C(C)(C)C [1-10]	log Pow 4.75	
C=C(C)CN(CC)c1nc(-c2ccccn2)nc(Cl)c1-c1c(F)cccc1Cl [I-2]	log Pow 4.73	logPow 4.73
CC(C)Nc1nc(-c2ccccn2)nc(Cl)c1-c1c(F)cccc1Cl [I-3]	log Pow 3.59	logPow 3.59
CCN(CC)c1nc(-c2ccccn2)nc(Cl)c1-c1c(F)cccc1Cl [I-5]	log Pow 4.23	logPow 4.23
C[C@@H](Nc1nc(-c2ccccn2)nc(Cl)c1-c1c(F)cccc1Cl)C(C)(C)C [I-7]	log Pow 4.8	logPow 4.8
CCN(CC)c1nc(-c2ccccn2)nc(Cl)c1-c1c(F)cc(F)cc1F [I-9]		logPow 4.08
C[C@H](Nc1nc(-c2ccccn2)nc(Cl)c1-c1c(F)cc(F)cc1F)C(F)(F)F [I-12]	log Pow 4.5	logPow 4.5
Cc1cccc(-c2nc(Cl)c(-c3c(F)cc(F)cc3F)c(N3CCOCC3)n2)n1 [I-24]	log Pow 4.25	logPow 4.25
CCN(CC)c1nc(-c2ccccn2)nc(Cl)c1-c1c(F)cc(OC)cc1F [I-64]	logP 5.0	logP 5.0
CCNc1nc(-c2ccccn2)nc(Cl)c1-c1c(F)cc(OC)cc1F [I-65]	logP 4.0	logP 4.0
CC(C)Nc1nc(-c2ccccn2)nc(Cl)c1-c1c(F)cc(O)cc1F [I-70]	log.P 3.0	log.P 3.0
CCN(CC)c1nc(-c2ccccn2)nc(Cl)c1-c1c(F)cccc1F [I-81]	logP 4.7	logP 4.7
CC(C)[C@H](C)Nc1nc(-c2ccccn2)nc(Cl)c1-c1c(F)cccc1F [I-82]	logP 5.0	logP 5.0
CC(C)Nc1nc(-c2ccccn2)nc(Cl)c1-c1c(F)cccc1F [I-83]	logP 4.1	logP 4.1
CC(C)[C@@H](C)Nc1nc(-c2ccccn2)nc(Cl)c1-c1c(F)cccc1F [I-84]	logP 5.0	logP 5.0
CCNc1nc(-c2ccccn2)nc(Cl)c1-c1ccc(C)cc1C [I-90]	logP 4.6	logP 4.6
Cc1ccc(-c2c(Cl)nc(-c3ccccn3)nc2NC(C)C)c(F)c1 [I-94]	logP 4.8	logP 4.8
CCNc1nc(-c2ccccn2)nc(Cl)c1-c1ccc(F)cc1C [I-114]	logP 4.1	logP 4.1
CCN(CC)c1nc(-c2ncccc2C)nc(Cl)c1-c1c(F)cc(F)cc1F [I-117]	logP 4.6	logP 4.6
